Measured values: US9296774B2, “Halogenated dideoxy sugar derivates, preparation method and application thereof” (Suzhou Harmony Biotechnology Co., Ltd., priority 2009, dated 2016)
Entries after “also recorded” stand apart in the source; their conditions may differ.

Columns and labels:
B16 malignant melanoma = assay: Mouse transplant tumor, B16 malignant melanoma
Protocol: (§1) Saline solution was used as a control. The positive group CTX was treated with the compounds at an amount of 0.4 ml/20 g. The compounds were applied once a day for consecutive 7 days.

mouse [1] = assay: Acute toxicity (LD50), mouse ig
05-732 human bone tumor = assay: Mouse transplant tumor, 05-732 human osteosarcoma
Protocol: as §1

mouse [2] = assay: Acute toxicity (LD50), mouse ip injection; settings: mouse ip after injection
[3] = system: AsPc human pancreatic cancer cells; assay: Mouse transplant tumor, AsPc human pancreatic cancer;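 also: Saline-treated mice served as the control group, with a CTX-treated group as positive reference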
Protocol: as §1

[4] = system: MGC human stomach cancer cells; assay: Mouse transplant tumor, MGC human stomach cancer;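 also: control group received saline vehicle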
Protocol: Saline solution was used as a control. The positive group CTX was treated with the compounds at an amount of 0.4 ml/20 g. The compounds were applied once a day for consecutive 7 days. The animals were then compensated.

[5] = system: MX-1 human breast cancer cells; assay: Mouse transplant tumor, MX-1 human breast cancer;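 also: mice given saline served as the control group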
Protocol: as §1

[6] = system: anaplastic thyroid carcinoma TA-K cells; assay: Mouse transplant tumor, human anaplastic thyroid carcinoma TA-K;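 also: Tumor-bearing mice compared against a saline-treated control group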
Protocol: as §1

[7] = B16, 125 mg/kg once a day for 7 days
[8] = 05-732 human osteosarcoma, 125 mg/kg once a day for 7 days
[9] = 125 mg/kg once a day for 7 days
[10] = 125 mg/kg once a day for 7 days, animal weight at end
[11] = 125 mg/kg once a day for 7 days, animal weight at start
[12] = human anaplastic thyroid carcinoma TA-K, 125 mg/kg once a day for 7 days

Structure (SMILES): CC(=O)OCC1OC(OP(=O)(O)N(CCCl)CCCl)CC(Br)C1OC(C)=O (centres unmarked) [Compound 10]
- Inhibition of tumor growth (%) (B16 malignant melanoma; [7]): 73.1%
- Weight of tumor (B16 malignant melanoma; [7]): 0.7
- weight end (B16 malignant melanoma; B16, 125 mg/kg once a day for 7 days, body weight at end): 18.3
- weight start (B16 malignant melanoma; B16, 125 mg/kg once a day for 7 days, body weight at start): 18.3
- inhibitive effect on mouse transplant tumor (in words) (B16 malignant melanoma; B16 malignant melanoma, 125 mg/kg): good inhibitive effect; also recorded: significant effect
- LD50 (mouse [1]): 2223.7 mg/kg
- inhibitive effect on mouse transplant tumor (in words) (05-732 human bone tumor; 05-732 human bone tumor, 125 mg/kg): good inhibitive effect; also recorded: significant effect
- Inhibtion of tumor growth (05-732 human bone tumor; [8]): 78.4
- Weight of tumor (05-732 human bone tumor; [8]): 0.6
- weight end (05-732 human bone tumor; 05-732 human osteosarcoma, 125 mg/kg once a day for 7 days, animal weight at end): 18.3
- weight start (05-732 human bone tumor; 05-732 human osteosarcoma, 125 mg/kg once a day for 7 days, animal weight at start): 18.3
- LD50 (mouse [2]): 315.6 mg/kg
- inhibitive effect on mouse transplant tumor (in words) ([3]; 125 mg/kg): good inhibitive effect; also recorded: significant effect
- Inhibition of tumor growth [3, 9]: 76.9
- Weight of tumor [3, 9]: 0.5
- weight end [3, 10]: 18.3
- weight start [3, 11]: 18.3
- inhibitive effect on mouse transplant tumor (in words) ([4]; 125 mg/kg): good inhibitive effect; also recorded: significant effect
- Inhibition of tumor growth [4, 9]: 73.2
- Weight of tumor [4, 9]: 0.6
- weight end [4, 10]: 18.3
- weight start [4, 11]: 18.3
- inhibitive effect on mouse transplant tumor (in words) ([5]; 125 mg/kg): good inhibitive effect; also recorded: significant effect
- Inhibition of tumor growth [5, 9]: 73.2
- Weight of tumor [5, 9]: 0.7
- weight end [5, 10]: 18.3
- weight start [5, 11]: 18.3
- inhibitive effect on mouse transplant tumor (in words) ([6]; anaplastic thyroid carcinoma TA-K, 125 mg/kg): good inhibitive effect; also recorded: significant effect
- Inhibition of tumor growth [6, 12]: 71.2
- Weight of tumor [6, 12]: 0.8
- weight end ([6]; human anaplastic thyroid carcinoma TA-K, 125 mg/kg once a day for 7 days, animal weight at end): 18.3
- weight start ([6]; human anaplastic thyroid carcinoma TA-K, 125 mg/kg once a day for 7 days, animal weight at start): 18.3
